Test system: AGS human gastric adenocarcinoma cells
Test: Human microarray study (Affymetrix Clariom S) of treated AGS cells
Format: cell-based
Settings: two days
Protocol: AGS human gastric adenocarcinoma cells were treated with compound I-1, or DMSO alone (as a negative control) for two days. After two days, RNA was isolated from compound I-1 treated cells and DMSO treated cells, in duplicate, and subjected to microarray analysis using AFFYMETRIX CLARIOM S microarrays. Data were represented as fold change relative to the compound I-1 treated cells, negative values represented genes that were on higher in compound I-1 treated cells than in DMSO treated cells, and positive values represented genes that were on higher in DMSO treated cells than in compound I-1 treated cells. Values were averaged for the duplicate samples. We included data for the genes whose expression was altered by more than 3 fold, either up or down, in response to compound I-1.
Negative numbers indicate fold upregulation upon drug treatment. Positive numbers indicate fold downregulation upon drug treatment. […] In addition, Chac1, PCK2, and SLC7A11 were all shown to have a tumor promoting activity and to be associated with the more dangerous and lethal forms of cancer, and these three genes were the three most strongly repressed genes measured in this analysis. There were other examples in the data that supported this model, but the overall model was that compound I-1 increased the expression of tumor suppressor genes, and decreased the expression of tumor promoting genes.

SMILES: CCC(=O)N1CCc2cc(-c3ccc(C(=O)NCc4cccnc4)cc3)ccc21 [Compound I-1]
- expression of tumor promoting genes (microarray, overall model): decreased
- expression of tumor suppressor genes (microarray, overall model): increased
- Fold Change ABHD4 (negative = upregulated): −15.57 fold
- Fold Change ACAT2 (negative = upregulated): −5.41 fold
- Fold Change ACSS2 (negative = upregulated): −8.4 fold
- Fold Change AKR1B10 (negative = upregulated): −4.25 fold
- Fold Change AKR1B15 (negative = upregulated): −3.05 fold
- Fold Change AKR1C1 (negative = upregulated): −16.86 fold
- Fold Change AKR1C2 (negative = upregulated): −6.95 fold
- Fold Change AKR1C3 (negative = upregulated): −8.57 fold
- Fold Change ANO6 (negative = upregulated): −3.15 fold
- Fold Change ARHGEF3 (negative = upregulated): −6.93 fold
- Fold Change ARRDC3 (negative = upregulated): −5.99 fold
- Fold Change AVPI1 (negative = upregulated): −3.14 fold
- Fold Change BCL2L11 (negative = upregulated): −4 fold
- Fold Change BCL6 (negative = upregulated): −3.01 fold
- Fold Change BHLHE40 (negative = upregulated): −7.94 fold
- Fold Change CA5B (negative = upregulated): −4.1 fold
- Fold Change CBFA2T2 (negative = upregulated): −3.24 fold
- Fold Change CCNG2 (negative = upregulated): −3.58 fold
- Fold Change CDA (negative = upregulated): −3.79 fold
- Fold Change CDC42EP4 (negative = upregulated): −3.75 fold
- Fold Change CDKN1A (negative = upregulated): −3.11 fold
- Fold Change CNNM2 (negative = upregulated): −3.68 fold
- Fold Change CREBRF (negative = upregulated): −5.55 fold
- Fold Change CSF1 (negative = upregulated): −3.31 fold
- Fold Change CXCL17 (negative = upregulated): −4.1 fold
- Fold Change CYP51A1 (negative = upregulated): −4.74 fold
- Fold Change DBP (negative = upregulated): −10.5 fold
- Fold Change DHCR7 (negative = upregulated): −8.77 fold
- Fold Change DHCR24 (negative = upregulated): −3.44 fold
- Fold Change DNAJB4 (negative = upregulated): −3.09 fold
- Fold Change DNAJB5 (negative = upregulated): −3.84 fold
- Fold Change DNMBP (negative = upregulated): −4 fold
- Fold Change DUSP10 (negative = upregulated): −27.17 fold
- Fold Change EBP (negative = upregulated): −3.69 fold
- Fold Change EDN2 (negative = upregulated): −3 fold
- Fold Change EFNA1 (negative = upregulated): −5.15 fold
- Fold Change EPHA4 (negative = upregulated): −4.56 fold
- Fold Change EYA3 (negative = upregulated): −3.81 fold
- Fold Change F2RL1 (negative = upregulated): −3.37 fold
- Fold Change FAM46A (negative = upregulated): −4.76 fold
- Fold Change FAM46C (negative = upregulated): −3.6 fold
- Fold Change FAM160A1 (negative = upregulated): −3.86 fold
- Fold Change FASN (negative = upregulated): −5.82 fold
- Fold Change FDFT1 (negative = upregulated): −7.56 fold
- Fold Change FGA (negative = upregulated): −13.67 fold
- Fold Change FGG (negative = upregulated): −4.11 fold
- Fold Change G6PD (negative = upregulated): −3.11 fold
- Fold Change GALM (negative = upregulated): −3.17 fold
- Fold Change GATSL2 (negative = upregulated): −3.58 fold
- Fold Change GDF15 (negative = upregulated): −4.83 fold
- Fold Change GNE (negative = upregulated): −3.21 fold
- Fold Change GRHL3 (negative = upregulated): −4.96 fold
- Fold Change HHLA2 (negative = upregulated): −3.59 fold
- Fold Change HK1 (negative = upregulated): −6.34 fold
- Fold Change HMGCR (negative = upregulated): −4.8 fold
- Fold Change HMGCS1 (negative = upregulated): −9.9 fold
- Fold Change HMOX1 (negative = upregulated): −14.23 fold
- Fold Change HSPA1A; HSPA1B (negative = upregulated): −5.34 fold
- Fold Change HSPA1B; HSPA1A (negative = upregulated): −5.04 fold
- Fold Change HSPB8 (negative = upregulated): −4.71 fold
- Fold Change IDI1 (negative = upregulated): −5.77 fold
- Fold Change IL1RN (negative = upregulated): −4.04 fold
- Fold Change ILF2 (negative = upregulated): −3.2 fold
- Fold Change INPP5D (negative = upregulated): −3.12 fold
- Fold Change INSIG1 (negative = upregulated): −8.5 fold
- Fold Change JAG1 (negative = upregulated): −3.31 fold
- Fold Change JAK2 (negative = upregulated): −3.6 fold
- Fold Change KAT6B (negative = upregulated): −3.77 fold
- Fold Change LEMD1 (negative = upregulated): −3.16 fold
- Fold Change LIPG (negative = upregulated): −3.65 fold
- Fold Change LNX1 (negative = upregulated): −4.32 fold
- Fold Change LPIN1; MIR548S (negative = upregulated): −3.22 fold
- Fold Change LY6D (negative = upregulated): −4.81 fold
- Fold Change LYPD3 (negative = upregulated): −4.09 fold
- Fold Change MICA (negative = upregulated): −3.66 fold
- Fold Change MICB (negative = upregulated): −12.71 fold
- Fold Change MID1 (negative = upregulated): −3.25 fold
- Fold Change MSMO1 (negative = upregulated): −9.47 fold
- Fold Change MT1E (negative = upregulated): −3.03 fold
- Fold Change MT1L (negative = upregulated): −3 fold
- Fold Change MTSS1L (negative = upregulated): −3.41 fold
- Fold Change MVD (negative = upregulated): −3.82 fold
- Fold Change MVK (negative = upregulated): −3.11 fold
- Fold Change MXD1 (negative = upregulated): −6.23 fold
- Fold Change MYLIP; MIR4639 (negative = upregulated): −3.88 fold
- Fold Change NEU1 (negative = upregulated): −4.89 fold
- Fold Change NEURL3 (negative = upregulated): −3.41 fold
- Fold Change NFAT5 (negative = upregulated): −3.32 fold
- Fold Change NFKBIA (negative = upregulated): −4.97 fold
- Fold Change NR1D1 (negative = upregulated): −23.3 fold
- Fold Change NR1D2 (negative = upregulated): −3.01 fold
- Fold Change NSDHL (negative = upregulated): −3.29 fold
- Fold Change OCLM (negative = upregulated): −3.22 fold
- Fold Change OSGIN1 (negative = upregulated): −3.63 fold
- Fold Change OTUD1 (negative = upregulated): −3.29 fold
- Fold Change OVOL1 (negative = upregulated): −4.01 fold
- Fold Change PADI1 (negative = upregulated): −3.48 fold
- Fold Change PCDH7 (negative = upregulated): −3.81 fold
- Fold Change PDGFRL (negative = upregulated): −6.65 fold
- Fold Change PERI; MIR6883 (negative = upregulated): −16.75 fold
- Fold Change PGM2L1 (negative = upregulated): −3.76 fold
- Fold Change PIM1 (negative = upregulated): −3.7 fold
- Fold Change PLK2 (negative = upregulated): −3.13 fold
- Fold Change PLPP3 (negative = upregulated): −3.74 fold
- Fold Change POLR2L (negative = upregulated): −3.14 fold
- Fold Change PRDM1 (negative = upregulated): −3.06 fold
- Fold Change PRSS22 (negative = upregulated): −4.6 fold
- Fold Change PSCA (negative = upregulated): −3.18 fold
- Fold Change PVRL1 (negative = upregulated): −3.57 fold
- Fold Change PVRL4 (negative = upregulated): −3.32 fold
- Fold Change RAB30 (negative = upregulated): −3.82 fold
- Fold Change RASSF5 (negative = upregulated): −5.9 fold
- Fold Change RBM26 (negative = upregulated): −6.5 fold
- Fold Change REG1A (negative = upregulated): −3.05 fold
- Fold Change RHOV (negative = upregulated): −4.66 fold
- Fold Change RND1 (negative = upregulated): −5.3 fold
- Fold Change RRAGC (negative = upregulated): −3.01 fold
- Fold Change RSRP1 (negative = upregulated): −3.61 fold
- Fold Change RYBP (negative = upregulated): −3.38 fold
- Fold Change SAT2 (negative = upregulated): −3.99 fold
- Fold Change SC5D (negative = upregulated): −3.39 fold
- Fold Change SEC24D (negative = upregulated): −3.84 fold
- Fold Change SLC20A1 (negative = upregulated): −4.87 fold
- Fold Change SLC25A25 (negative = upregulated): −3.73 fold
- Fold Change SLC30A1 (negative = upregulated): −4.84 fold
- Fold Change SLN (negative = upregulated): −5.63 fold
- Fold Change SPATA5 (negative = upregulated): −3.26 fold
- Fold Change SQLE (negative = upregulated): −4.32 fold
- Fold Change STK17B (negative = upregulated): −6.26 fold
- Fold Change SUSD6 (negative = upregulated): −3.48 fold
- Fold Change TAF5 (negative = upregulated): −3.41 fold
- Fold Change TEF (negative = upregulated): −6.45 fold
- Fold Change TGFBR3 (negative = upregulated): −3.86 fold
- Fold Change TIAL1 (negative = upregulated): −4.62 fold
- Fold Change TKT (negative = upregulated): −3.56 fold
- Fold Change TMEM2 (negative = upregulated): −4.49 fold
- Fold Change TMEM263 (negative = upregulated): −3.01 fold
- Fold Change TMPRSS2 (negative = upregulated): −5.06 fold
- Fold Change TNFSF13B (negative = upregulated): −4.12 fold
- Fold Change TRIM24 (negative = upregulated): −3.01 fold
- Fold Change UGDH (negative = upregulated): −4.16 fold
- Fold Change YBX1 (negative = upregulated): −3.62 fold
- Fold Change ZNF114 (negative = upregulated): −7.07 fold
- Fold Change ZNRF3 (negative = upregulated): −3.14 fold
- Fold Change ZSWIM6 (negative = upregulated): −3.28 fold
- Fold Change SQSTM1 (negative = upregulated, first SQSTM1 entry): −4.27 fold
- Fold Change SQSTM1 (negative = upregulated, second SQSTM1 entry): −3.5 fold
- Fold Change AARS (positive = downregulated): 3.12 fold
- Fold Change AJUBA (positive = downregulated): 8.65 fold
- Fold Change AKTIP (positive = downregulated): 3.39 fold
- Fold Change ARHGEF2 (positive = downregulated): 4.73 fold
- Fold Change ASNS (positive = downregulated): 12.78 fold
- Fold Change ASS1 (positive = downregulated): 7.34 fold
- Fold Change ATF5; MIR4751 (positive = downregulated): 6.55 fold
- Fold Change BRCA1 (positive = downregulated): 4.22 fold
- Fold Change BTC (positive = downregulated): 5.04 fold
- Fold Change C4BPB (positive = downregulated): 3.69 fold
- Fold Change C5orf28 (positive = downregulated): 4.4 fold
- Fold Change C12orf4 (positive = downregulated): 3.45 fold
- Fold Change C14orf79 (positive = downregulated): 3.68 fold
- Fold Change C17orf80 (positive = downregulated): 4.3 fold
- Fold Change CARS (positive = downregulated): 5.53 fold
- Fold Change CCDC125 (positive = downregulated): 3.31 fold
- Fold Change CCDC138 (positive = downregulated): 3.07 fold
- Fold Change CDC7 (positive = downregulated): 3.01 fold
- Fold Change CDH11 (positive = downregulated): 4.69 fold
- Fold Change CDX2 (positive = downregulated): 3.07 fold

— patent US12522587B2, “Cancer treatments targeting cancer stem cells” (Remedy Plan, Inc., priority 2018, dated 2026)
